According to patent publication US7960377B2 (priority 2008, dated 2011):

Target: human CB1 receptor (Homo sapiens, UniProt P21554)
Assay: cell-based

Sequence of human CB1 receptor (P21554 whole entry): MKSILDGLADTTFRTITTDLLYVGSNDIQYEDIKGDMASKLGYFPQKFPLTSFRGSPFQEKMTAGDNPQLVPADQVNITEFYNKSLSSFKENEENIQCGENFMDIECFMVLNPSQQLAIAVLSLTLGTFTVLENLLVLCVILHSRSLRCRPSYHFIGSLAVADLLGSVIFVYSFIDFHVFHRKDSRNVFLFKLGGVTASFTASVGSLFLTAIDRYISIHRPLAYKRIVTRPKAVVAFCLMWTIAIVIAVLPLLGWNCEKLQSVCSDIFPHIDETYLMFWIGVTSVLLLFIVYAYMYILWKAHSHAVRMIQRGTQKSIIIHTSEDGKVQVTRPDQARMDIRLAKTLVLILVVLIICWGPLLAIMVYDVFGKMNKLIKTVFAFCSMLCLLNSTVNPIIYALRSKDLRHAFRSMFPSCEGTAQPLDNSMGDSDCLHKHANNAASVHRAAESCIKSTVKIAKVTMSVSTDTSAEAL

Structure (SMILES) | EC50 | inverse agonist mark, human CB1 receptor (asterisk at the compound number)
O=C(c1cnc2c(c1)N(S(=O)(=O)c1ccc(C(F)(F)F)cc1)CCO2)N1CCCCC1CO (racemic) [Example 72, +/− (2-(hydroxymethyl)piperidin-1-yl)(1-(4-(trifluoro-methyl)phenylsulfonyl)-2,3-dihydro-1H-pyrido [2,3-b][1,4]oxazin-7-yl) methanone] | > 30 µM | 
COC(=O)CC1CCCCN1C(=O)c1cnc2c(c1)N(S(=O)(=O)c1ccc(C(F)(F)F)cc1)CCO2 (racemic) [Example 73, +/− methyl 2-(1-(1-(4-(trifluoromethyl)phenylsulf-onyl)-2,3-dihydro-1H-pyrido[2,3-b][1,4]oxazine-7-carbonyl)piperidin-2-yl)acetate] | > 30 µM | 
O=C(c1cnc2c(c1)N(S(=O)(=O)c1ccc(C(F)(F)F)cc1)CCO2)N1CCCCC1CN1CCCC1 (racemic) [Example 75, +/− (2-(pyrrolidin-1-ylmethyl)piperidin-1-yl)(1-(4-(trifluoromethyl)-phenylsulfonyl)-2,3-dihydro-1H-pyrido[2,3-b][1,4]oxazin-7-yl)-methanone] | > 30 µM | 
O=C(c1cnc2c(c1)N(S(=O)(=O)c1ccc(C(F)(F)F)cc1)CCO2)N1CCCCC1CN1CCOCC1 (racemic) [Example 76, +/− (2-(morpholino-methyl)piperidin-1-yl)(1-(4-(trifluoromethyl)-phenylsulfonyl)-2,3-dihydro-1H-pyrido[2,3-b][1,4]oxazin-7-yl)methanone] | > 30 µM | 
O=C(c1cnc2c(c1)N(S(=O)(=O)c1ccccc1)CCO2)N1CCCCC1 [Example 1, (1-(phenylsulfonyl)-2,3-dihydro-1H-pyrido[2,3-b][1,4]oxazin-7-yl)(piperidin-1-yl)methanone] | > 30 µM | 
O=C(NCC1CCOCC1)c1cnc2c(c1)N(S(=O)(=O)c1ccc(F)cc1)CCO2 [Example 9, 1-(4-fluorophenyl-sulfonyl)-N-((tetrahydro-2H-pyran-4-yl)methyl)-2,3-dihydro-1H-pyrido[2,3-b][1,4]oxazine-7-carboxamide] | > 30 µM | 
CCN(CC)C(=O)c1cnc2c(c1)N(S(=O)(=O)c1ccc(F)cc1)CCO2 [Example 13, N,N-diethyl-1-(4-fluorophenylsulfonyl)2,3-dihydro-1H-pyrido[2,3-b][1,4]oxazine-7-carboxamide] | > 30 µM | 
O=C(NCC1CCCO1)c1cnc2c(c1)N(S(=O)(=O)c1ccc(F)cc1)CCO2 (stereo not shown) [Example 14, 1-(4-fluorophenyl-sulfonyl)-N-((tetra-hydrofuran-2-yl)methyl)-2,3-dihydro-1H-pyrido [2,3-b][1,4]oxazine-7-carboxamide] | > 30 µM | 
CC(C)(C)NC(=O)c1cnc2c(c1)N(S(=O)(=O)c1cccnc1)CCO2 [Example 16, N-tert-butyl-1-(pyridin-3-ylsulfonyl)-2,3-dihydro-1H-pyrido[2,3-b][1,4]oxazine-7-carboxamide] | > 30 µM | 
O=C(NC1CCCC1)c1cnc2c(c1)N(S(=O)(=O)c1cccnc1)CCO2 [Example 17, N-cyclopentyl-1-(pyridin-3-ylsulfonyl)-2,3-dihydro-1H-pyrido[2,3-b][1,4]oxazine-7-carboxamide] | > 30 µM | 
CC(C)CS(=O)(=O)N1CCOc2ncc(C(=O)NC(C)(C)C)cc21 [Example 28, N-tert-butyl-1-(isobutylsulfonyl)-2,3-dihydro-1H-pyrido[2,3-b][1,4]oxazine-7-carboxamide] | > 30 µM | 
CC(C)CS(=O)(=O)N1CCOc2ncc(C(=O)NC3CCCC3)cc21 [Example 29, N-cyclopentyl-1-(isobutylsulfonyl)-2,3-dihydro-1H-pyrido[2,3-b][1,4]oxazine-7-carboxamide] | > 30 µM | 
CN(Cc1ccccc1)C(=O)c1cnc2c(c1)N(S(=O)(=O)c1ccc(F)cc1)CCO2 [Example 32, N-benzyl-1-(4-fluorophenylsulfonyl)-N-methyl-2,3-dihydro-1H-pyrido[2,3-b][1,4]oxazine-7-carboxamide] | > 30 µM | 
COCCN(C)C(=O)c1cnc2c(c1)N(S(=O)(=O)c1ccc(Cl)cc1)CCO2 [Example 34, 1-(4-chlorophenyl-sulfonyl)-N-(2-methoxy-ethyl)-N-methyl-2,3-dihydro-1H-pyrido[2,3-b][1,4]oxazine-7-carboxamide] | > 30 µM | 
COCCN(C)C(=O)c1cnc2c(c1)N(S(=O)(=O)c1ccc(C(F)(F)F)cc1)CCO2 [Example 35, N-(2-methoxyethyl)-N-methyl-1-(4-(trifluoro-methyl)phenylsulfonyl)-2,3-dihydro-1H-pyrido-[2,3-b][1,4]oxazine-7-carboxamide] | > 30 µM | 
CN(Cc1ccccc1)C(=O)c1cnc2c(c1)N(S(=O)(=O)c1ccc(C(F)(F)F)cc1)CCO2 [Example 36, N-benzyl-N-methyl-1-(4-(trifluoromethyl)phenylsulf-onyl)-2,3-dihydro-1H-pyrido[2,3-b][1,4]oxazine-7-carboxamide] | > 30 µM | 
CC(C)(CN1CCCC1)NC(=O)c1cnc2c(c1)N(S(=O)(=O)c1ccc(C(F)(F)F)cc1)CCO2 [Example 37, N-(2-methyl-1-(pyrrolidin-1-yl)propan-2-yl)-1-(4-(trifluoromethyl)phenylsulf-onyl)-2,3-dihydro-1H-pyrido[2,3-b][1,4]oxazine-7-carboxamide] | > 30 µM | 

Structure (SMILES) | EC50 | inverse agonist mark, human CB1 receptor (asterisk at the compound number)
CC(C)(C)N(CCC#N)C(=O)c1cnc2c(c1)N(S(=O)(=O)c1ccc(C(F)(F)F)cc1)CCO2 [Example 41, N-tert-butyl-N-(2-cyanoethyl)-1-(4-(trifluoromethyl)phenylsulf-onyl)-2,3-dihydro-1H-pyrido[2,3-b][1,4]oxazine-7-carboxamide] | > 30 µM | 
CC(C)(C)N(CCO)C(=O)c1cnc2c(c1)N(S(=O)(=O)c1ccc(C(F)(F)F)cc1)CCO2 [Example 44, N-tert-butyl-N-(2-hydroxyethyl)-1-(4-(trifluoromethyl)phenylsulf-onyl)-2,3-dihydro-1H-pyrido[2,3-b][1,4]oxazine-7-carboxamide] | > 30 µM | 
CC(C)(N)CNC(=O)c1cnc2c(c1)N(S(=O)(=O)c1ccc(C(F)(F)F)cc1)CCO2 [Example 47, N-(2-amino-2-methylpropyl)-1-(4-(trifluoromethyl)phenylsulf-onyl)-2,3-dihydro-1H-pyrido[2,3-b][1,4]oxazine-7-carboxamide] | > 30 µM | 
O=C(c1cnc2c(c1)N(S(=O)(=O)c1ccc(C(F)(F)F)cc1)CCO2)N1CCCCC1 [Example 49, piperidin-1-yl(1-(4-(trifluoromethyl)phenylsulf-onyl)-2,3-dihydro-1H-pyrido[2,3-b][1,4]oxazin-7-yl)methanone] | > 30 µM | 
O=C(c1cnc2c(c1)N(S(=O)(=O)c1ccc(C(F)(F)F)cc1)CCO2)N1CCOCC1 [Example 50, morpholino(1-(4-(trifluoromethyl)phenylsulf-onyl)-2,3-dihydro-1H-pyrido[2,3-b][1,4]oxazin-7-yl)methanone] | > 30 µM | 
COCCNC(=O)c1cnc2c(c1)N(S(=O)(=O)c1ccc(C(F)(F)F)cc1)CCO2 [Example 51, N-(2-methoxyethyl)-1-(4-(trifluoromethyl)phenysulf-onyl)-2,3-dihydro-1H-pyrido[2,3-b][1,4]oxazine-7-carboxamide] | > 30 µM | 
CC(C)(C)NC(=O)c1cnc2c(c1)N(S(=O)(=O)c1ccc(Cl)cc1Cl)CCO2 [Example 54, N-tert-butyl-1-(2,4-dichlorophenylsulfonyl)-2,3-dihydro-1H-pyrido[2,3-b][1,4]oxazine-7-carboxamide] | > 30 µM | 
Cc1cc(F)ccc1S(=O)(=O)N1CCOc2ncc(C(=O)NC(C)(C)C)cc21 [Example 56, N-tert-butyl-1-(4-fluoro-2-methylphenylsulfonyl)-2,3-dihydro-1H-pyrido[2,3-b][1,4]oxazine-7-carboxamide] | > 30 µM | 
CC(C)(C)NC(=O)c1cnc2c(c1)N(S(=O)(=O)c1ccc(F)cc1Cl)CCO2 [Example 57, N-tert-butyl-1-(2-chloro-4-fluorophenylsulfonyl)-2,3-dihydro-1H-pyrido[2,3-b][1,4]oxazine-7-carboxamide] | > 30 µM | 
CC(C)(C)NC(=O)c1cnc2c(c1)N(S(=O)(=O)Cc1ccccc1)CCO2 [Example 60, 1-(benzylsulfonyl)-N-tert-butyl-2,3-dihydro-1H-pyrido[2,3-b][1,4]oxazine-7-carboxamide] | > 30 µM | 
CC(C)(C)NC(=O)c1cnc2c(c1)N(S(=O)(=O)Cc1ccc(Cl)cc1)CCO2 [Example 61, N-tert-butyl-1-(4-chlorobenzylsulfonyl)-2,3-dihydro-1H-pyrido[2,3-b][1,4]oxazine-7-carboxamide] |  | 2, 3, 5, 7, 8, 10, 39, 58, 61*, 69, 93*, 101, 102, 109, 110, 111, 112,
CC(C)(C)NC(=O)c1cnc2c(c1)N(S(=O)(=O)Cc1ccc(F)cc1)CCO2 [Example 62, N-tert-butyl-1-(4-fluorobenzylsulfonyl)-2,3-dihydro-1H-pyrido[2,3-b][1,4]oxazine-7-carboxamide] | > 30 µM | 
CC(C)(CN1CCCCC1)NC(=O)c1cnc2c(c1)N(S(=O)(=O)c1ccc(C(F)(F)F)cc1)CCO2 [Example 77, N-(2-methyl-1-(piperidin-1-yl)propan-2-yl)-1-(4-(trifluoromethyl)phenylsulf-onyl)-2,3-dihydro-1H-pyrido[2,3-b][1,4]oxazine-7-carboxamide] | > 30 µM | 
CCCS(=O)(=O)N1CCOc2ncc(C(=O)NC(C)(C)C)cc21 [Example 79, N-tert-butyl-1-(propylsulfonyl)-2,3-dihydro-1H-pyrido[2,3-b][1,4]oxazine-7-carboxamide] | > 30 µM | 
CC(C)(C)NC(=O)c1cnc2c(c1)N(S(=O)(=O)c1ccc(C(C)(C)C)cc1)CCO2 [Example 82, N-tert-butyl-1-(4-tert-butylphenylsulfonyl)-2,3-dihydro-1H-pyrido[2,3-b][1,4]oxazine-7-carboxamide] | > 30 µM | 
CC(C)(C)NC(=O)c1cnc2c(c1)N(S(=O)(=O)c1cccc(OC(F)(F)F)c1)CCO2 [Example 85, N-tert-butyl-1-(3-(trifluoromethoxy)phenyl-sulfonyl)-2,3-dihydro-1H-pyrido[2,3-b][1,4]oxazine-7-carboxamide] | > 30 µM | 
Cc1cccc(S(=O)(=O)N2CCOc3ncc(C(=O)NC(C)(C)C)cc32)c1 [Example 86, N-tert-butyl-1-(m-tolylsulfonyl)-2,3-dihydro-1H-pyrido[2,3-b][1,4]oxazine-7-carboxamide] | > 30 µM | 
